Earlier results as cited in patent US20200319065A1, “STABLE DITHIZONE SOLUTIONS AND FORMULATIONS AND METHODS FOR THEIR USE” (CITY OF HOPE, priority 2019, published 2020).

solubility in organic solvents (ethanol, chloroform and DMSO): solubilizes partially | solubility in water (water): relatively insoluble
SMILES: S=C(N=Nc1ccccc1)NNc1ccccc1 [DTZ, Dithizone]
